Assay results from patent US20250352514A1, “SALT FORMS OF BIS(3-(2-(DIMETHYLAMINO)ETHYL)-1 H-INDOL-4-YL) 3,3'¬OXYDIPROPIONATE” (priority 2024, published 2025).

Assay: Initial polymorphism assessment by slurrying in 12 solvents at room temperature, XRPD
Assay type: physicochemical
Details: shaken at room temperature 3-4 days
Description: The vials were capped, sealed with Parafilm®, and then covered with foil. The experiments were shaken at room temperature for 4 days. After 4 days all the experiments had remained as slurries apart from the experiment in water. Portions of solid were removed from each one and analyzed by XRPD.
The vials were capped, sealed with Parafilm® and then covered with foil. The experiments were shaken at room temperature for 3 days. After 3 days all the experiments had remained as slurries. Portions were removed from each one and analyzed by XRPD.

Compound: CN(C)CCc1c[nH]c2cccc(OC(=O)CCOCCC(=O)Oc3cccc4[nH]cc(CCN(C)C)c34)c12
- XRPD patterns after slurrying in 12 solvents compared with input material: XRPD patterns consistent with the XRPD pattern of the input material
